The record followed here is patent US12390437B2, “Itaconic acid derivatives and uses thereof intreating an inflammatory disease or a disease associated with an undesirable immune response” (Sitryx Therapeutics Limited, priority 2019, dated 2025).

As usually defined, the IC50 is the point on the concentration scale where inhibition reaches its midpoint. A lower IC50 goes with inhibition by little substance.

For data set [1], the system named is IL-6 cytokine output from THP-1s. The data set is described as follows: THP-1 AlphaLISA IL-6 cytokine assay. Type of data set: cell-based, human. The conditions noted are these: Homo sapiens; PMA-differentiated THP-1 cells, LPS 24 hr then Nigericin 1 hour. In short, it runs like this: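 Percent inhibition, normalised to plus- and minus-LPS controls, was plotted against concentration to derive IC50. Differentiated THP-1 cells received compound 30 min ahead of LPS (24 h) and a 1 h nigericin pulse; AlphaLISA quantified supernatant cytokine.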

Data set [2] can be described thus: Mouse pharmacokinetic study, intravenous dosing. Type of data set: in vivo. To be noted: male, C57BL/6, mouse, iv, plasma, 10 mg/kg i.v., read-out: Parent compound concentration following intravenous administration. In short, it runs like this:
(§1)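 Oral arm: 100 mg/kg gavage in 5% DMSO with 0.5% HPMC/0.1% Tween 80, blood from 5 min to 24 h. Intravenous arm: 10 mg/kg tail-vein injection in 10% DMSO with HP-β-CD, blood from 3 min to 8 h. Male C57BL/6 mice; LC-MS/MS on plasma.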

Data set [3] is described as follows: Mouse pharmacokinetic study, oral administration. Type of data set: in vivo. To be noted: male, C57BL/6, mouse, plasma, po, 100 mg/kg, plasma, male C57BL/6 mice, oral gavage 100 mg/kg; for concentration at 0.083 h: read-out: Parent compound concentrations following oral administration, Time 0.083 h; for concentration at 0.25 h: read-out: Parent compound concentrations following oral administration, Time 0.25 h; for concentration at 0.5 h: read-out: Parent compound concentrations following oral administration, Time 0.5 h; for concentration at 1 h: read-out: Parent compound concentrations following oral administration, Time 1 h; for concentration at 2 h: read-out: Parent compound concentrations following oral administration, Time 2 h; for concentration at 4 h: read-out: Parent compound concentrations following oral administration, Time 4 h; for concentration at 6 h: read-out: Parent compound concentrations following oral administration, Time 6 h; for concentration at 8 h: read-out: Parent compound concentrations following oral administration, Time 8 h; for concentration at 24 h: read-out: Parent compound concentrations following oral administration, Time 24 h. A digest of the protocol:
as §1

The nature of data set [4]: Hepatocyte stability assay (mouse). Type of data set: in vitro ADME. The conditions noted are these: cryopreserved hepatocytes, 10 μM compound, 0.5×10^6 cells/mL, 60 minutes, read-out: T½. A digest of the protocol: (§2)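 Cryopreserved hepatocytes (viability >70%), 0.5×10^6 cells/mL in Leibovitz buffer, incubated at 37 °C with 10 μM compound (0.1% DMSO), duplicates; buffer-only incubations as negative control. Samples at 0-60 min quenched in acetonitrile, parent measured by LC-MS/MS; half-life and Clint (μL min^−1 10^−6 cells) from ln % remaining versus time slope.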

Data set [5] deals with hepatocytes. Briefly: Hepatocyte stability assay (mouse). Type of data set: in vitro ADME. To be noted: 10 μM compound, 0.5×10^6 cells/mL, 60 minutes. A digest of the protocol:
as §2

In data set [1], `C=C(CC(=O)OC1CCCCCCC1)C(=O)OCCC(=O)O` [Example 82, 3-((4-(cyclooctyloxy)-2-methylene-4-oxobutanoyl)oxy)propanoic acid] showed a 50% inhibitory concentration (IC50) of 18.9 µM. For the same compound, in data set [2], the concentration at 0.05 h stood at 17600 ng/mL, the concentration at 0.133 h worked out at 8350 ng/mL, the concentration at 0.25 h amounted to 2780 ng/mL and the concentration at 0.5 h came to 752 ng/mL. Besides, in data set [2], the concentration at 1 h stood at 69 ng/mL, the concentration at 2 h came out at 2.2 ng/mL, the concentration at 4 h is 1.4 ng/mL and the concentration at 6 h was found to be 1.6 ng/mL. Further, the concentration at 8 h in data set [2] is under 0.8 ng/mL. In data set [3], the concentration at 0.083 h amounted to 27500 ng/mL, the concentration at 0.25 h was 18000 ng/mL, the concentration at 0.5 h stood at 6450 ng/mL and the concentration at 1 h came to 3400 ng/mL. Further, in data set [3], the concentration at 2 h is 1040 ng/mL, the concentration at 4 h is 568 ng/mL, the concentration at 6 h came to 112 ng/mL and the concentration at 8 h amounted to 86 ng/mL. Moreover, the concentration at 24 h in data set [3] is under 0.8 ng/mL. Moreover, in data set [4], the half-life at 10 μM worked out at 27 min. Moreover, the “CIint (μL min^−1 10^−6 cells)” value in data set [5] is on record as 52 μL min^−1 10^−6 cells.
In turn, `C=C(CC(=O)O[C@H](C)CCCCCC)C(=O)OCCC(=O)O` [Example 88, (R)-3-((2-methylene-4-(octan-2-yloxy)-4-oxobutanoyl)oxy)propanoic acid] returned an IC50 in data set [1] of 20.4 µM. In data set [2], the concentration at 0.05 h came out at 42500 ng/mL, the concentration at 0.133 h was found to be 23500 ng/mL, the concentration at 0.25 h is 12400 ng/mL and the concentration at 0.5 h amounted to 6250 ng/mL. Also, in data set [2], the concentration at 1 h worked out at 2510 ng/mL, the concentration at 2 h amounted to 200 ng/mL, the concentration at 4 h is 40 ng/mL and the concentration at 6 h was determined as 11 ng/mL. Besides, the concentration at 8 h in data set [2] was determined as 4.2 ng/mL. Moreover, in data set [3], the concentration at 0.083 h stood at 53900 ng/mL, the concentration at 0.25 h is 43600 ng/mL, the concentration at 0.5 h was determined as 33800 ng/mL and the concentration at 1 h is 12700 ng/mL. For the same compound, in data set [3], the concentration at 2 h was 10500 ng/mL, the concentration at 4 h was found to be 4100 ng/mL, the concentration at 6 h came out at 1950 ng/mL and the concentration at 8 h worked out at 72 ng/mL. Moreover, the concentration at 24 h in data set [3] amounted to 5.5 ng/mL. Further, the half-life at 10 μM in data set [4] is 7 min. For the same compound, the “CIint (μL min^−1 10^−6 cells)” value in data set [5] was 297 μL min^−1 10^−6 cells.
For the compound `C=C(CC(=O)O[C@@H](C)CCCCCC)C(=O)OCC(=O)O` [Example 89, (S)-2-((2-methylene-4-(octan-2-yloxy)-4-oxobutanoyl)oxy)acetic acid], the IC50 in data set [1] turned out to be 12.6 µM. Further, in data set [2], the concentration at 0.05 h came to 27800 ng/mL, the concentration at 0.133 h came out at 12400 ng/mL, the concentration at 0.25 h was determined as 7680 ng/mL and the concentration at 0.5 h came to 2300 ng/mL. For the same compound, in data set [2], the concentration at 1 h came out at 430 ng/mL, the concentration at 2 h worked out at 65 ng/mL, the concentration at 4 h is 6.8 ng/mL and the concentration at 6 h is under 4 ng/mL. Further, the concentration at 8 h in data set [2] was under 4 ng/mL. In addition, in data set [3], the concentration at 0.083 h came to 44000 ng/mL, the concentration at 0.25 h came to 39100 ng/mL, the concentration at 0.5 h stood at 28500 ng/mL and the concentration at 1 h was 14000 ng/mL. In data set [3], the concentration at 2 h turned out to be 4740 ng/mL, the concentration at 4 h was found to be 918 ng/mL, the concentration at 6 h amounted to 582 ng/mL and the concentration at 8 h was found to be 16 ng/mL. The concentration at 24 h in data set [3] worked out at 6.8 ng/mL. In data set [4], the half-life at 10 μM came to 13 min. In addition, the “CIint (μL min^−1 10^−6 cells)” value in data set [5] came out at 198 μL min^−1 10^−6 cells.
